Test results from US4096252A, “4-Trifluoromethylbenzoic acid derivatives as thromboembolic agents” (priority 1976, dated 1978).
“And” between values parts separate entries of the source, which are not always exact repeats. Identical values can stand only once. Like-named read-outs stand apart in the source and are kept apart here.

Key:
[1] = tested on: blood coagulation factors and fibrinolysis; type: in vivo, human; settings: oral; for Euglobin lysis time: Von Kaulas's test / Activated kaolin test / Activated partial thromboplastin test: APTI / Howell's test / Plasma prothrombine test: Quick test / Serum prothrombin time / Bleeding time, Duke test / Clotting time / Thromboelastogram K / Thromboelastogram r / Hematocrit / Platelet count: mean ± s.e.m.; for Euglobin lysis time: Von Kaulas's test: decrease vs control = drug effect; for Activated kaolin test / Activated partial thromboplastin test: APTI / Howell's test / Plasma prothrombine test: Quick test / Serum prothrombin time: decrease vs control = inhibitory effect; for Bleeding time, Duke test / Clotting time / Thromboelastogram K / Thromboelastogram r: increase vs control = inhibitory effect; for anticoagulant action (in words) / blood fibrinolytic activity (in words): humans; for Clot retraction / Degradation products of fibrinogen: DPF / Parrot's test / Tourniquet test: days not separated
Method: The values r and k (in parameter 15 of Table V) correspond to blood (b). Their significance appears from the Figure.
(§1) In the in vivo tests on humans, the two selected compounds were administered per os during six consecutive days at equimolar doses: 200 mg three times a day of 2-acetoxy-4-trifluoromethylbenzoic acid and 248 mg three times a day of 2-phosphonoxy-4-trifluoromethylbenzoic acid.
(§2) Blood was collected on the first, fourth and seventh day of the test and the platelet aggregation induced by ADP, epinephrine and collagen was determined according to the above-mentioned Born method.
The potential anticoagulant and fibrinolytic activity of the claimed compounds has therefore likewise been investigated. For this purpose, with the same blood samples used for the determination of in vivo antiaggregating action on humans, the following parameters were examined: clotting time, bleeding time (Duke test), tourniquet test, Parrot's test, plasma prothrombine test (Quick test), activated partial thromboplastin test (APTT), activated Kaolin test, Howell's test, serum prothrombin time, euglobulin lysis time, Von Kaula's test, degradation products of fibrinogen (DPF), platelet count, clot retraction, hematocrit and thromboelastogram.
EFFECT OF 2-ACETOXY-4-TRIFLUOROMETHYLBENZOIC ACID AND 2-PHOSPHONOXY-4-TRIF
ZOIC ACID ON BLOOD COAGULATION FACTORS AND FIBRINOLYSIS*.
treated with 2-acetoxy-4-trifluoromethylbenzoic acid and on 6 humans
treated with 2-phos phonoxy-4-trifluoromethylbenzoic acid. An increase of
the mean values (±s.e.m.) of parameters 1 and 2 or a decrease of
parameters 5,6,7,8,9,10 and 11 with respect to control, mean an inhibitor
effec of drugs on the blood coagulation and fibrinolysis.
**An increase of r and k values with respect to control, indicates an
inhibitory effect of the drugs on blood coagulation and also on platelet
aggregation. These figures are indicated in FIG. 2 which corresponds to a
normal thromboelastogram.

[2] = tested on: human platelet aggregation; assay: Human platelet aggregation induced by collagen after oral administration to humans; type: in vivo; settings: collagen 33.3 μg/m, one value per human; for y (collagen-induced aggregation curve): decrease vs control = inhibition; for delay (collagen-induced aggregation curve) / x (collagen-induced aggregation curve): increase vs control = inhibition
Method: The significance of the parameters employed in Table IV (x, y and delay) is indicated; and
as §1, §2
(§3) EFFECT OF 2-ACETOXY-4-TRIFLUOROMETHYLBENZOIC ACID
(§4) AND 2-PHOSPHONOXY-4-TRIFLUOROMETHYLBENZOIC
ACID ON PLATELET AGGREGATION INDUCED BY
COLLAGEN AFTER ORAL ADMINISTRATION TO HUMANS*.
*An increase of delay time and x and a decrease of y with respect to
control indicate an inhibitory effect on platelet aggregation (see FIG.

[3] = tested on: human platelet aggregation; assay: In vitro inhibition of human platelet aggregation (Born and Cross method); type: cell-based
Method: Platelet aggregation was measured according to the method of Born and Cross (8) by using rat and human plasma. The results are summarized below in Tables I and II.
Key : PC = Plasma Concentration: PAI = Platelet Aggregation
*The percent of inhibition was calculated using the method described by
McKenzie (Proc. Soc. Exp. Biol. Med. 137: 662, 1971).

[4] = tested on: human platelet aggregation; assay: Human platelet aggregation induced by ADP and epinephrine after oral administration to humans; type: in vivo; settings: Tables III and IV
Method: as §1, §2, §3, §4
ACID ON PLATELET AGGREGATION INDUCED BY ADP AND
EPINEPHRINE AFTER ORAL ADMINISTRATION TO HUMANS*
*The figures express the concentration (μM) that produces irreversible

[5] = tested on: rat platelet aggregation; assay: In vitro inhibition of rat platelet aggregation (Born and Cross method); type: cell-based; settings: for inhibition at 830 µM / inhibition at 2080 µM / inhibition at 4150 µM / inhibition at 8300 µM: Rattus norvegicus, Platelet, rat plasma; for inhibition at 830 µM: plasma concentration 0.83×10^-3 molar; for inhibition at 2080 µM: plasma concentration 2.08×10^-3 molar; for inhibition at 4150 µM: plasma concentration 4.15×10^-3 molar; for inhibition at 8300 µM: plasma concentration 8.30×10^-3 molar
Method: Platelet aggregation was measured according to the method of Born and Cross (8) by using rat and human plasma.

[6] = ADP 4.1×10^-6 M, read-out: Platelet Aggregation Inhibition (PAI)
[7] = Collagen 33.3 μg/ml, read-out: Platelet Aggregation Inhibition (PAI)
[8] = read-out: Platelet Aggregation Inhibition (PAI), ADP 4.1×10^-6 M
[9] = read-out: Platelet Aggregation Inhibition (PAI), Collagen 33.3 μg/ml

## CC(=O)Oc1cc(C(F)(F)F)ccc1C(=O)O [2-acetoxy-4-trifluoromethylbenzoic acid]
[1]; 4th day
  Euglobin lysis time: Von Kaulas's test: 140.0 ± 12.3 min
  Activated kaolin test: 0.797±0.03
  Activated partial thromboplastin test: APTI: 0.720±0.03
  Howell's test: 0.723±0.04
  Plasma prothrombine test: Quick test: 0.938±0.02
  Serum prothrombin time: 38.8 ± 2.7 s
  Bleeding time, Duke test: 133.0 ± 19.3 s
  Clotting time: 521.6 ± 29.7 s
  Thromboelastogram K: 24.6±1.6 cm
  Thromboelastogram r: 19.6±1.2 cm
[1]; 7th day
  Euglobin lysis time: Von Kaulas's test: 136.1 ± 11.5 min
  Activated kaolin test: 0.890±0.02
  Activated partial thromboplastin test: APTI: 0.890±0.03
  Howell's test: 0.807±0.04
  Plasma prothrombine test: Quick test: 0.933±0.02
  Serum prothrombin time: 37.3 ± 3.9 s
  Bleeding time, Duke test: 116.0 ± 13.8 s
  Clotting time: 526.6 ± 25.6 s
  Thromboelastogram K: 22.1±1.5 cm
  Thromboelastogram r: 21.6±3.6 cm
[1]
  anticoagulant action (in words): exert an anticoagulant action
  blood fibrinolytic activity (in words): increase of the blood fibrinolytic activity
  Clot retraction: NEGATIVE
  Degradation products of fibrinogen: DPF: NEGATIVE
  Parrot's test: POSITIVE IN TWO HUMANS
  Tourniquet test: NEGATIVE
[2]; 4th day
  y (collagen-induced aggregation curve): 41 mm and 45 mm
  delay (collagen-induced aggregation curve): 60 xc and 72 xc
  x (collagen-induced aggregation curve): 22 mm and 24 mm and 17 mm and 25 mm
[2]; 7th day
  delay (collagen-induced aggregation curve): 108 xc and 60 xc and 96 xc and 72 xc and 84 xc
[3]; ADP 1.6×10^-6 M, plasma concentration 6.25×10^-3 molar, read-out: Platelet Aggregation Inhibition (PAI)
  inhibition at 6250 µM: 22.5%
[3]; ADP 1.6×10^-6 M, plasma concentration 8.30×10^-3 molar, read-out: Platelet Aggregation Inhibition (PAI)
  inhibition at 8300 µM: 38.6%
[3]; Collagen 33.3 mcg/ml, plasma concentration 4.10×10^-3 molar, read-out: Platelet Aggregation Inhibition (PAI)
  inhibition at 4100 µM: 37.5%
[3]; Collagen 33.3 mcg/ml, plasma concentration 8.30×10^-3 molar, read-out: Platelet Aggregation Inhibition (PAI)
  inhibition at 8300 µM: 62%
[3]; Epinephrine 1.4×10^-6 M, plasma concentration 17.0×10^-3 molar, read-out: Platelet Aggregation Inhibition (PAI)
  inhibition at 17000 µM: 74%
[4]
  in vivo action on human platelet aggregation (in words): far more effective compound
[5]; [6]
  inhibition at 830 µM: 26%
  inhibition at 2080 µM: 37.5%
  inhibition at 4150 µM: 51.9%
  inhibition at 8300 µM: 93.7%
[5]; [7]
  inhibition at 4150 µM: 34.5%
  inhibition at 8300 µM: 52.7%

## CNC[C@H](O)c1ccc(O)c(O)c1 [epinephrine, reference compound]
[5]; epinephrine as aggregating agent
  influence on rat platelets: no

## O=C(O)c1ccc(C(F)(F)F)cc1OP(=O)(O)O [2-phosphonoxy-4-trifluoromethylbenzoic acid]
[1]; 4th day
  Hematocrit: 42.0±1.0
  Platelet count: 253.3±10.5 per mm^3 ×10^3
  Euglobin lysis time: Von Kaulas's test: 145.1 ± 9.3 min
  Activated kaolin test: 0.768±0.05
  Activated partial thromboplastin test: APTI: 0.823±0.04
  Howell's test: 0.873
  Plasma prothrombine test: Quick test: 0.966±0.02
  Serum prothrombin time: 34.8 ± 2.6 s
  Bleeding time, Duke test: 155.0 ± 19.6 s
  Clotting time: 527.5 ± 30.8 s
  Thromboelastogram K: 25.3±2.7 cm
  Thromboelastogram r: 17.8±2.0 cm
[1]; 7th day
  Hematocrit: 45.0±1.4
  Platelet count: 223.3±12.8 per mm^3 ×10^3
  Euglobin lysis time: Von Kaulas's test: 136.6 ± 9.0 min
  Activated kaolin test: 0.960±0.04
  Activated partial thromboplastin test: APTI: 0.960±0.01
  Howell's test: 0.793±0.07
  Plasma prothrombine test: Quick test: 0.986±0.02
  Serum prothrombin time: 33.0 ± 1.5 s
  Bleeding time, Duke test: 112.5 ± 10.8 s
  Clotting time: 520.0 ± 28.6 s
  Thromboelastogram K: 19.9±1.9 cm
  Thromboelastogram r: 15.0±1.3 cm
[1]
  anticoagulant action (in words): exert an anticoagulant action
  blood fibrinolytic activity (in words): increase of the blood fibrinolytic activity
  Clot retraction: NEGATIVE
  Degradation products of fibrinogen: DPF: NEGATIVE
  Parrot's test: POSITIVE IN FOUR HUMANS
  Tourniquet test: NEGATIVE
[2]; 4th day
  y (collagen-induced aggregation curve): 49 mm and 42 mm and 36 mm and 37 mm and 41 mm
  delay (collagen-induced aggregation curve): 36 xc and 24 xc and 48 xc
  x (collagen-induced aggregation curve): 14 mm and 16 mm and 17 mm and 22 mm and 18 mm
[2]; 7th day
  delay (collagen-induced aggregation curve): 48 xc and 24 xc and 36 xc
  x (collagen-induced aggregation curve): 13 mm and 14 mm and 15 mm and 23 mm and 12 mm
[3]; read-out: Platelet Aggregation Inhibition (PAI), ADP 1.6×10^-6 M, plasma concentration 6.25×10^-3 molar
  inhibition at 6250 µM: 56.6%
[3]; read-out: Platelet Aggregation Inhibition (PAI), ADP 1.6×10^-6 M, plasma concentration 8.30×10^-3 molar
  inhibition at 8300 µM: 60.8%
[3]; read-out: Platelet Aggregation Inhibition (PAI), Collagen 33.3 mcg/ml, plasma concentration 4.10×10^-3 molar
  inhibition at 4100 µM: 0%
[3]; read-out: Platelet Aggregation Inhibition (PAI), Collagen 33.3 mcg/ml, plasma concentration 8.30×10^-3 molar
  inhibition at 8300 µM: 12.6%
[3]; read-out: Platelet Aggregation Inhibition (PAI), Epinephrine 1.4×10^-6 M, plasma concentration 17.0×10^-3 molar
  inhibition at 17000 µM: 59%
[4]
  in vivo action on human platelet aggregation (in words): only a slight in vivo action on human platelet aggregation
[5]; [8]
  inhibition at 830 µM: 11.2%
  inhibition at 2080 µM: 23.1%
  inhibition at 4150 µM: 57.5%
  inhibition at 8300 µM: 69.8%
[5]; [9]
  inhibition at 4150 µM: 45.5%
  inhibition at 8300 µM: 94.5%
